In patent US20260116920A1, “HUMAN TRANSFERRIN RECEPTOR BINDING PEPTIDE” (PEPTIDREAM INC., priority 2021, published 2026):
Positions of bridges follow the written chain, without caps; N, C: chain ends. Non-standard residues stand in square brackets, D forms with d. Residues, ends and D or L forms follow the SMILES beside them. *: point of attachment. Ala(1-CH2CO2H-4-piperidyl) = N[C@@H](CC1CCN(CC(=O)O)CC1)C(=O)O; Trp(1-CH2COOH) = N[C@@H](Cc1cn(CC(=O)O)c2ccccc12)C(=O)O; NH(CH2CH2O)8Me = COCCOCCOCCOCCOCCOCCOCCOCCN*; NMePhe(3-Cl) = CN[C@@H](Cc1cccc(Cl)c1)C(=O)O; NMeY = CN[C@@H](Cc1ccc(O)cc1)C(=O)O; 4Pal = N[C@@H](Cc1ccncc1)C(=O)O; PEG4 = NCCOCCOCCOCCOCCC(=O)O; Carboxymethyl = O=C(O)C*; NHCH2CH2OH = OCCN*

Biological target: T1, human transferrin receptor (hTfR) (Homo sapiens, UniProt P02786)
T1 construct: made in house
T1 sequence (P02786 89-760 limits assumed): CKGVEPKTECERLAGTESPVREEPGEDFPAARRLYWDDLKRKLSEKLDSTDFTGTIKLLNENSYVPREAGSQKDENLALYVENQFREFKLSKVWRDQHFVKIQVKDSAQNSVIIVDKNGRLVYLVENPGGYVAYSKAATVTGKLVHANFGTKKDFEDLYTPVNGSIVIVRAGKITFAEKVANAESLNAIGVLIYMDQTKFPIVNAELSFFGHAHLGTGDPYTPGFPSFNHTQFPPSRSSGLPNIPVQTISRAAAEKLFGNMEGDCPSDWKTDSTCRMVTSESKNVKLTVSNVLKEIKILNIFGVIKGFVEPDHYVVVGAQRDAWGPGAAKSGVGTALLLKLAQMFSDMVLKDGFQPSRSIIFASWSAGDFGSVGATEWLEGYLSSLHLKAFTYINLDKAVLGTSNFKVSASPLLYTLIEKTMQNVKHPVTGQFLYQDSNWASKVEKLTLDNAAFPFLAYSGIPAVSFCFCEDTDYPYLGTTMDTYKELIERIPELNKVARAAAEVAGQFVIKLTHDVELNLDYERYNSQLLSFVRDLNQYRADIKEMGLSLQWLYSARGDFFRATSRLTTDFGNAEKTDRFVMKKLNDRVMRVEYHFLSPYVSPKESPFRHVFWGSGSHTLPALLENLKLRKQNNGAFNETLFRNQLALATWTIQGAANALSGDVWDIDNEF
Test: Evaluation of molecular interaction between transferrin receptor (hTfR) and peptide using surface plasmon resonance (SPR)
Assay type: binding
Conditions: KD class for binding to hTfR by SPR; peptide with the linker shown in the same line; 'low signal indicates no activity'; read-out: SPR
Experimental: Evaluation Test of Molecular Interaction Between Transferrin Receptor (hTfR) and Peptide Using Surface Plasmon Resonance (SPR)
The intermolecular interactions of various synthesized peptides with the transferrin receptor (hTfR) by surface plasmon resonance (SPR) of the peptides were tested by the methods described below. Specific test methods are shown below.
NTA sensor chip (Global Life Sciences Technologies Japan K.K.) was inserted into BiacoreT200 (Global Life Sciences Technologies Japan K.K.), then the priming operation was performed three times by using running buffer containing: 10 mM HEPES pH 8.0 (Nacalai Tesque, Inc.), 150 mM NaCl (Nacalai Tesque, Inc.), 0.05% Tween 20 (Nacalai Tesque, Inc.), 0.1% BSA (SIGMA-ALDRICH) and 1.0% DMSO (FUJIFILM Wako Pure Chemical Corporation), and equilibrated at a flow rate of 30 μL/min. 350 mM EDTA solution was reacted at a flow rate of 10 μL/min for 60 seconds, 0.5 mM […] solution (Kishida Chemical Co., Ltd.) was reacted at a flow rate of 10 μL/min for 60 seconds, and then the NTA sensor chip was washed with 3 mM EDTA solution (Nacalai Tesque, Inc.) at a flow rate of 10 μL/min for 60 seconds. After mixing 50 μL each of 60 mM EDC solution (Global Life Science Technologies Japan K.K.) and 650 mM NHS solution (Global Life Science Technologies Japan K.K.), the reaction was carried out at a flow rate of 10 μL/min for 420 seconds. 150 μL of 0.5 μM hTfR dimer solution was prepared by dilution with running buffer and reacted at a flow rate of 10 μL/min for 300 seconds to immobilize hTfR on the NTA sensor chip. For the human transferrin receptor (hTfR), recombinant hTfR described in Example 2 of WO2018/124121 was used. After immobilization, capping was performed by reacting with 1.0 M ethanolamine solution (Global Life Sciences Technologies Japan K.K.) at a flow rate of 10 μL/min for 420 seconds. Peptide lysate prepared in DMSO solution to 10 mM was diluted with running buffer to be a final concentration of 10 μM peptide lysate, then peptide solutions of 100 nM, 50 nM, 25 nM, 10 nM, and 5 nM were prepared. Using the above samples, the kinetics of the peptide against hTfR was obtained by SPR measurement.
The kinetic evaluation model was single-cycle kinetics, and curve fitting was performed using Biacore T200 Evaluation Software Version 3.0 (Global Life Science Technologies Japan K.K.). The binding of the peptide to hTfR was evaluated by performing curve fitting on the obtained sensorgram by least squares method and obtaining the KD value.

Row | Kd [nM] | SMILES
1 | 1 to 100 | CC[C@H](C)[C@@H]1NC(=O)[C@H](Cc2ccc(OCC(=O)O)cc2)NC(=O)[C@H](Cc2ccc(O)cc2)NC(=O)[C@H](CC(N)=O)NC(=O)[C@H](Cc2c[nH]c3ccccc23)NC(=O)[C@H](C(C)C)NC(=O)[C@H](Cc2cccc(Cl)c2)N(C)C(=O)[C@H](C(C)C)NC(=O)[C@H](C)NC(=O)CSC[C@@H](C(=O)NCCOCCOCCOCCOCCC(N)=O)NC(=O)[C@H](Cc2ccc(O)cc2)N(C)C(=O)[C@H](Cc2ccncc2)NC(=O)[C@H](CCCNC(=N)N)NC(=O)[C@H](CCCNC(=N)N)NC(=O)[C@H]([C@@H](C)CC)NC1=O [894_0364]
2 | 1 to 100 | CC[C@H](C)[C@@H]1NC(=O)[C@H](Cc2ccc(OC)cc2)NC(=O)[C@H](Cc2ccc(O)cc2)NC(=O)[C@H](CC(N)=O)NC(=O)[C@H](Cc2c[nH]c3ccccc23)NC(=O)[C@H](C(C)C)NC(=O)[C@H](Cc2cccc(Cl)c2)N(C)C(=O)[C@H](C(C)C)NC(=O)[C@H](C)NC(=O)CSC[C@@H](C(=O)NCCOCCOCCOCCOCCC(N)=O)NC(=O)[C@H](Cc2ccc(O)cc2)N(C)C(=O)[C@H](Cc2ccncc2)NC(=O)[C@H](CCC(=O)NCCOCCOCCOCCOCCOCCOCCOCCOC)NC(=O)[C@H](CCCNC(=N)N)NC(=O)[C@H]([C@@H](C)CC)NC1=O [894_0366] ({CH2CO}-AV[NMePhe(3-Cl)]VWNYY(Me)IIRE(NH(CH2CH2O)8Me)[4Pal][NMeY]C[PEG4]-NH2; thioether N-15)
3 | < 1 | CC[C@H](C)[C@@H]1NC(=O)[C@H](Cc2ccc(OCC(=O)O)cc2)NC(=O)[C@H](Cc2ccc(O)cc2)NC(=O)[C@H](CC(N)=O)NC(=O)[C@H](Cc2cn(CC(=O)O)c3ccccc23)NC(=O)[C@H](C(C)C)NC(=O)[C@H](Cc2cccc(Cl)c2)N(C)C(=O)[C@H](C(C)C)NC(=O)[C@H](C)NC(=O)CSC[C@@H](C(=O)NCCOCCOCCOCCOCCC(N)=O)NC(=O)[C@H](Cc2ccc(O)cc2)N(C)C(=O)[C@H](Cc2ccccc2)NC(=O)[C@H](CCCNC(=N)N)NC(=O)[C@H](CCCCNC(=O)OC)NC(=O)[C@H]([C@@H](C)CC)NC1=O [894_0378]
4 | 1 to 100 | CC[C@H](C)[C@@H]1NC(=O)[C@H](Cc2ccc(OCC(=O)O)cc2)NC(=O)[C@H](Cc2ccc(O)cc2)NC(=O)[C@H](CC(N)=O)NC(=O)[C@H](Cc2cn(CC(=O)O)c3ccccc23)NC(=O)[C@H](C(C)C)NC(=O)[C@H](Cc2cccc(Cl)c2)N(C)C(=O)[C@H](C(C)C)NC(=O)[C@H](C)NC(=O)CSC[C@@H](C(=O)NCCOCCOCCOCCOCCC(N)=O)NC(=O)[C@H](Cc2ccc(O)cc2)N(C)C(=O)[C@H](Cc2ccccc2)NC(=O)[C@H](CCCCNC(=O)OC)NC(=O)[C@H](CCCNC(=N)N)NC(=O)[C@H]([C@@H](C)CC)NC1=O [894_0379]
5 | 1 to 100 | CC[C@H](C)[C@@H]1NC(=O)[C@H](Cc2ccc(OCC(=O)O)cc2)NC(=O)[C@H](Cc2ccc(O)cc2)NC(=O)[C@H](CC(N)=O)NC(=O)[C@H](Cc2cn(CC(=O)O)c3ccccc23)NC(=O)[C@H](C(C)C)NC(=O)[C@H](Cc2cccc(Cl)c2)N(C)C(=O)[C@H](C(C)C)NC(=O)[C@H](C)NC(=O)CSC[C@@H](C(=O)NCCOCCOCCOCCOCCC(N)=O)NC(=O)[C@H](Cc2ccc(O)cc2)N(C)C(=O)[C@H](Cc2ccccc2)NC(=O)[C@H](CCCNC(=N)N)NC(=O)[C@H](CCC(=O)NCCO)NC(=O)[C@H]([C@@H](C)CC)NC1=O [894_0380]
6 | 1 to 100 | CC[C@H](C)[C@@H]1NC(=O)[C@H](Cc2ccc(OCC(=O)O)cc2)NC(=O)[C@H](Cc2ccc(O)cc2)NC(=O)[C@H](CC(N)=O)NC(=O)[C@H](Cc2cn(CC(=O)O)c3ccccc23)NC(=O)[C@H](C(C)C)NC(=O)[C@H](Cc2cccc(Cl)c2)N(C)C(=O)[C@H](C(C)C)NC(=O)[C@H](C)NC(=O)CSC[C@@H](C(=O)NCCOCCOCCOCCOCCC(N)=O)NC(=O)[C@H](Cc2ccc(O)cc2)N(C)C(=O)[C@H](Cc2ccccc2)NC(=O)[C@H](CCC(=O)NCCO)NC(=O)[C@H](CCCNC(=N)N)NC(=O)[C@H]([C@@H](C)CC)NC1=O [894_0381]
7 | < 1 | CC[C@H](C)[C@@H]1NC(=O)[C@H](Cc2ccc(OCC(=O)O)cc2)NC(=O)[C@H](Cc2ccc(O)cc2)NC(=O)[C@H](CC(N)=O)NC(=O)[C@H](Cc2cn(CC(=O)O)c3ccccc23)NC(=O)[C@H](C(C)C)NC(=O)[C@H](Cc2cccc(Cl)c2)N(C)C(=O)[C@H](C(C)C)NC(=O)[C@H](C)NC(=O)CSC[C@@H](C(=O)NCCOCCOCCOCCOCCC(N)=O)NC(=O)[C@H](Cc2ccc(O)cc2)N(C)C(=O)[C@H](Cc2ccccc2)NC(=O)[C@H](CCC(=O)NCCO)NC(=O)[C@H](CCC(=O)NCCO)NC(=O)[C@H]([C@@H](C)CC)NC1=O [894_0382] ({CH2CO}-AV[NMePhe(3-Cl)]V[Trp(1-CH2COOH)]NYY(Carboxymethyl)IIE(NHCH2CH2OH)E(NHCH2CH2OH)F[NMeY]C[PEG4]-NH2; thioether N-15)
8 | 1 to 100 | CC[C@H](C)[C@@H]1NC(=O)[C@H](Cc2ccc(OCC(=O)O)cc2)NC(=O)[C@H](Cc2ccc(O)cc2)NC(=O)[C@H](CC(N)=O)NC(=O)[C@H](Cc2cn(CC(=O)O)c3ccccc23)NC(=O)[C@H](C(C)C)NC(=O)[C@H](Cc2cccc(Cl)c2)N(C)C(=O)[C@H](C(C)C)NC(=O)[C@H](C)NC(=O)CSC[C@@H](C(=O)NCCOCCOCCOCCOCCC(N)=O)NC(=O)[C@H](Cc2ccc(O)cc2)N(C)C(=O)[C@H](Cc2ccccc2)NC(=O)[C@H](CCCNC(=N)N)NC(=O)[C@H](CCC(=O)N2CCN(CC(=O)O)CC2)NC(=O)[C@H]([C@@H](C)CC)NC1=O [894_0383]
9 | 1 to 100 | CC[C@H](C)[C@@H]1NC(=O)[C@H](Cc2ccc(OCC(=O)O)cc2)NC(=O)[C@H](Cc2ccc(O)cc2)NC(=O)[C@H](CC(N)=O)NC(=O)[C@H](Cc2cn(CC(=O)O)c3ccccc23)NC(=O)[C@H](C(C)C)NC(=O)[C@H](Cc2cccc(Cl)c2)N(C)C(=O)[C@H](C(C)C)NC(=O)[C@H](C)NC(=O)CSC[C@@H](C(=O)NCCOCCOCCOCCOCCC(N)=O)NC(=O)[C@H](Cc2ccc(O)cc2)N(C)C(=O)[C@H](Cc2ccccc2)NC(=O)[C@H](CCC(=O)N2CCN(CC(=O)O)CC2)NC(=O)[C@H](CCCNC(=N)N)NC(=O)[C@H]([C@@H](C)CC)NC1=O [894_0384]
10 | < 1 | CC[C@H](C)[C@@H]1NC(=O)[C@H](Cc2ccc(OCC(=O)O)cc2)NC(=O)[C@H](Cc2ccc(O)cc2)NC(=O)[C@H](CC(N)=O)NC(=O)[C@H](Cc2cn(CC(=O)O)c3ccccc23)NC(=O)[C@H](C(C)C)NC(=O)[C@H](Cc2cccc(Cl)c2)N(C)C(=O)[C@H](C(C)C)NC(=O)[C@H](C)NC(=O)CSC[C@@H](C(=O)NCCOCCOCCOCCOCCC(N)=O)NC(=O)[C@H](Cc2ccc(O)cc2)N(C)C(=O)[C@H](Cc2ccccc2)NC(=O)[C@H](CCCNC(=N)N)NC(=O)[C@H](CC2CCN(CC(=O)O)CC2)NC(=O)[C@H]([C@@H](C)CC)NC1=O [894_0386] ({CH2CO}-AV[NMePhe(3-Cl)]V[Trp(1-CH2COOH)]NYY(Carboxymethyl)II[Ala(1-CH2CO2H-4-piperidyl)]RF[NMeY]C[PEG4]-NH2; thioether N-15)
11 | 1 to 100 | CC[C@H](C)[C@@H]1NC(=O)[C@H](Cc2ccc(OCC(=O)O)cc2)NC(=O)[C@H](Cc2ccc(O)cc2)NC(=O)[C@H](CC(N)=O)NC(=O)[C@H](Cc2cn(CC(=O)O)c3ccccc23)NC(=O)[C@H](C(C)C)NC(=O)[C@H](Cc2cccc(Cl)c2)N(C)C(=O)[C@H](C(C)C)NC(=O)[C@H](C)NC(=O)CSC[C@@H](C(=O)NCCOCCOCCOCCOCCC(N)=O)NC(=O)[C@H](Cc2ccc(O)cc2)N(C)C(=O)[C@H](Cc2ccccc2)NC(=O)[C@H](CC2CCN(CC(=O)O)CC2)NC(=O)[C@H](CCCNC(=N)N)NC(=O)[C@H]([C@@H](C)CC)NC1=O [894_0387] ({CH2CO}-AV[NMePhe(3-Cl)]V[Trp(1-CH2COOH)]NYY(Carboxymethyl)IIR[Ala(1-CH2CO2H-4-piperidyl)]F[NMeY]C[PEG4]-NH2; thioether N-15)
12 | < 1 | CC[C@H](C)[C@@H]1NC(=O)[C@H](Cc2ccc(OCC(=O)O)cc2)NC(=O)[C@H](Cc2ccc(O)cc2)NC(=O)[C@H](CC(N)=O)NC(=O)[C@H](Cc2cn(CC(=O)O)c3ccccc23)NC(=O)[C@H](C(C)C)NC(=O)[C@H](Cc2cccc(Cl)c2)N(C)C(=O)[C@H](C(C)C)NC(=O)[C@H](C)NC(=O)CSC[C@@H](C(=O)NCCOCCOCCOCCOCCC(N)=O)NC(=O)[C@H](Cc2ccc(O)cc2)N(C)C(=O)[C@H](Cc2ccccc2)NC(=O)[C@H](CCCNC(=N)N)NC(=O)[C@H](CCCCN2CCOCC2)NC(=O)[C@H]([C@@H](C)CC)NC1=O [894_0388]
